Our source for the Emax, EC50 and inhibition values is patent US10231956B2, “3-(1H-pyrrolo[3,2-C]pyridin-2-YL)-1 H-pyrazolo[4,3-B]pyridines and therapeutic uses thereof” (Samumed, LLC, priority 2015, dated 2019).

Some results are limits rather than exact numbers.

The subject of experiment [1] is primary human mesenchymal stem cells (hMSCs). Briefly: Induction of chondrogenesis in primary human mesenchymal stem cells (nodule count). It counts as cell-based. The settings on record: 144 h, 6 days; for Emax: TGF-β3 10 ng/mL as positive control, read-out: Max. Activity as % TGF-β3 activity; for EC50: concentration required to induce 50% levels of chondrogenesis vs TGF-β3, read-out: Conc (nM) of 50% TGF-β3 activity. The procedure:
Representative compounds were screened using primary human mesenchymal stem cells (hMSCs) to determine their ability to induce chondrogenesis (process by which cartilage is developed).
Human Mesenchymal Stem Cell Culture: Primary human mesenchymal stem cells (hMSCs) were purchased from Lonza (Walkersville, Md.) and expanded in Mesenchymal Stem Cell Growth Media (Lonza). Cells between passage 3 and 6 were used for the experiments.
Compound Screening: Each compound was dissolved in DMSO as a 10 mM stock and used to prepare compound source plates. Serial dilution (1:3, 6-point dose-response curves from 2700 nM to 10 nM) and compound transfer was performed using the ECHO 550 (Labcyte, Sunnyvale, Calif.) into 96-well clear bottom assay plates (Greiner Bio-One) with appropriate DMSO backfill for a final DMSO concentration of 0.03%. hMSCs were plated at 20,000 cells/well in 250 μL/well Incomplete Chondrogenic Induction Medium (Lonza; DMEM, dexamethasone, ascorbate, insulin-transferrin-selenium [ITS supplement], gentamycin-amphotericin [GA-1000], sodium pyruvate, proline and L-glutamine). TGF-β3 (10 ng/mL) was used as a positive control for differentiation while negative control wells were treated with 75 nL DMSO for normalization and calculating EC50 values. Cells were incubated at 37° C. and 5% CO2 for 6 days. To image chondrogenic nodules, the cells were fixed using 4% formaldehyde (Electron Microscopy Sciences), and stained with 2 μg/mL Rhodamine B (Sigma-Aldrich) and 20 μM Nile Red (Sigma-Aldrich) [Johnson K., et. al, A Stem Cell-Based Approach to Cartilage Repair, Science, (2012), 336(6082), 717-721]. The nodules imaged (4 images per well at 4× magnification) by excitation at 531 nm and emission at 625 nm and quantified using the CellInsight CX5 (Thermo Scientific). Number of nodules in each well was normalized to the average of 3 DMSO treated wells on the same plate using Excel (Microsoft Inc.). The normalized averages (fold change over DMSO) of 3 replicate wells for each compound concentration were calculated. Due to solubility limitations of some of the compounds, curve fitting was incomplete leading to inaccurate EC50 determinations.
Using TGF-β3 as a positive control, the concentration of representative compounds required to induce 50% levels of chondrogenesis is reported. In addition, the maximum activity of each compound and the respective dose that each compound reached maximum chondrogenesis activity is reported.

The next experiment relates to IL-6. In words: IL-6 inhibition in LPS-stimulated THP-1 cells (HTRF). The format is cell-based. The settings on record: Homo sapiens; for EC50: LPS 500 ng/mL, 22 hours, IL6 HTRF. (In general: In TR-FRET formats the signal depends on donor and acceptor labels being close together.)

Consider `CS(=O)(=O)NCc1cc(F)cc(-c2nccc3[nH]c(-c4n[nH]c5ccc(-c6cncnc6)nc45)cc23)c1` [Compound 503, N-(3-Fluoro-5-(2-(5-(pyrimidin-5-yl)-1H-pyrazolo[4,3-b]pyridin-3-yl)-1H-pyrrolo [3,2-c]pyridin-4-yl)benzyl)methanesulfonamide], for which, in experiment [1], the Emax came to 51%. Also, the results for the EC50 (in experiment [1]; in the experiment on IL-6) were 2700 nM and greater than 10000 nM, respectively. In addition, the inhibition at 10 µM in the experiment on IL-6 (given for EC50 >10 μM, LPS, IL6, 10 μM, read-out: percent inhibition at 10 μM) was found to be 7.6%.
For `CN(C)c1cncc(-c2ccc3[nH]nc(-c4cc5c(-c6cccc(F)c6)nccc5[nH]4)c3n2)c1` [Compound 7, 5-(3-(4-(3-Fluorophenyl)-1H-pyrrolo[3,2-c]pyridin-2-yl)-1H-pyrazolo[4,3-b]pyridin-5-yl)-N,N-dimethylpyridin-3-amine], in experiment [1], the Emax was found to be 153% and the EC50 amounted to 2700 nM. Besides, in the experiment on IL-6, the EC50 came to 104 nM.
For `Cc1ccncc1-c1ccc2[nH]nc(-c3cc4c(N5CCN(C)CC5)nccc4[nH]3)c2n1` [Compound 229, 3-(4-(4-Methylpiperazin-1l-yl)-1H-pyrrolo[3,2-c]pyridin-2-yl)-5-(4-methylpyridin-3-yl)-1H-pyrazolo[4,3-b]pyridine] the same measures were 87%, 2700 nM and 108 nM.
Turning to `CN(C)Cc1cncc(-c2ccc3[nH]nc(-c4cc5c(N6CCCCC6)nccc5[nH]4)c3n2)c1` [Compound 181, N,N-Dimethyl-1-(5-(3-(4-(piperidin-1l-yl)-1H-pyrrolo[3,2-c]pyridin-2-yl)-1H-pyrazolo[4,3-b]pyridin-5-yl)pyridin-3-yl)methanamine], the Emax in experiment [1] came to 23%. Also, the EC50 with IL-6 was determined as 2210 nM.
For `O=C(Nc1cncc(-c2ccc3[nH]nc(-c4cc5c(-c6ccccc6F)nccc5[nH]4)c3n2)c1)C1CC1` [Compound 76, N-(5-(3-(4-(2-Fluorophenyl)-1H-pyrrolo[3,2-c]pyridin-2-yl)-1H-pyrazolo [4,3-b]pyridin-5-yl)pyridin-3-yl)cyclopropanecarboxamide] the same measures were 25% and 95 nM.
As to `CC(C)CC(=O)Nc1cncc(-c2ccc3[nH]nc(-c4cc5c(-c6ccccc6F)nccc5[nH]4)c3n2)c1` [Compound 58, N-(5-(3-(4-(2-Fluorophenyl)-1H-pyrrolo[3,2-c]pyridin-2-yl)-1H-pyrazolo [4,3-b]pyridin-5-yl)pyridin-3-yl)-3-methylbutanamide], in experiment [1], the Emax was found to be 36%. This compound registered an EC50 with IL-6 of 74 nM.
With `c1cncc(-c2ccc3[nH]nc(-c4cc5cnccc5[nH]4)c3n2)c1` [Compound 256, 5-(Pyridin-3-yl)-3-(1H-pyrrolo[3,2-c]pyridin-2-yl)-1H-pyrazolo[4,3-b]pyridine], in experiment [1], the Emax was found to be 119% and the EC50 came out at 900 nM. In the experiment on IL-6, this compound registered an EC50 of 73 nM.

In general, inhibition refers to the drop in the measured response relative to a control, in per cent.
